Entries after “also recorded” stand apart in the source; their conditions may differ. No end group written: not given here.
Assays:
[1] = tested on: tight junctions of Caco2 cells; test: Caco2 tight junction morphology (cingulin or ZO-1 staining, tortuosity); assay type: cell-based, human; details: for tight junction distortion caused by LPS: 10 mM taurine, 1 mM tryptamine, 10 mM L-homo-serine, in combination with LPS; for tight junction morphology: 10 mM acetyl-proline, 1 mM putrescine, 10 mM histamine, 5 mM spermine; for tight junction disruption phenotype (type 1 zipper-like, type 2 flower-like): known IBD mediators; for tight junctions morphology (cingulin): 50 ng/ml TNFa, 30 ng/ml IL1-b, 100 ng/ml LPS
Experimental: (§1) CaCo-2 cells were purchased from ATCC. Cells were routinely grown in regular tissue culture medium (DMEM, 10% FCS, penicillin/streptomycin, GlutaMAX). For experiments with differing glucose concentrations, cells were routinely cultured in low-glucose DMEM (1 g/l glucose). Cells were seeded onto 96-well glass-bottom plates coated with either fibronectin or collagen 70 000 cells/well and allowed to grow for 24 hours to form confluent monolayer before indicated treatments.
(§2) For high resolution images of manually selected representative fields, a DeltaVision wide field fluorescent microscope (GE Healthcare) equipped with 40×UPlanFLN or 60×/1.42 PlanApo N oil objective (Olympus) was used. For multi-well plate scanning, the following automated imaging stations were used: DeltaVision microscope with plate scanning regiment, Hermes imaging station (IDEA bio-Medical) or ImagExpress microXL imaging station (Molecular Devices) equipped by 40× air objectives. In all cases in order to cover the curvature of apical surface of epithelial monolayer 5 μm thick z-stack was acquired around the tight junction plane (identified by best focus algorithm) and resulting image was generated as a maximum projection of all optical sections.
(§3) Cell images were segmented using Morphological Segmentation ImageJ plug-in and junction tortuosity was calculated as a ratio between junction length and Euclidian distance between its ends.

[2] = tested on: focal adhesions of Caco2 cells; test: Caco2 cell-matrix focal adhesions (paxillin staining); assay type: cell-based, human; details: for focal adhesions size vs control non treated cells / enlargement of focal adhesions caused by LPS: 1 mM tryptamine, 10 mM L-homo-serine; for enlargement of focal adhesions caused by LPS: with LPS; for focal adhesions size: 10 mM acetyl-proline, 1 mM putrescine, 10 mM histamine, 5 mM spermine
Experimental: as §1, §2

[3] = tested on: Caco2 cells; test: Traction force microscopy; assay type: cell-based, human; details: Caco2 islands on polyacrylamide hydrogels, 24 hours treatment
Experimental: SoftTrac 6 well plates with pre-made collagen coated 12 kPa hydrogels containing embedded 0.2 μm fluorescent beads were purchased from Matrigen. 200,000 cells per well were plated and allowed to grow for 24 hours to form epithelial islands, treated with the indicated metabolite for another 24 hours and live-imaged using DeltaVision microscope equipped with environmental chamber. After acquisition of cell and fluorescent bead images in steady state conditions, cells were detached with trypsin and imaging of beads was repeated in a relaxed state. Displacement map generation and force calculations were performed using MatLab script described in Butler et al. Am J Physiol Cell Physiol. 2002.

[4] = tested on: tight junctions of Caco2 cells; test: Human secreted molecules library screen for tight junction modulators; assay type: cell-based; details: Caco2, 24 hours; ng/ml: TNFa 50, Il-15 25, CCL-20 50, CCL-23 50, FGF-1 25, FGF-10 100, BMP-10 50, UTS-2 10, UCN-1 20, EPO 10, UCN-3 20, IL-21 30, CCL-3 40, TIMP-2 100, FasLG 10
Experimental: as §1, §3
A protein library, consisting of 295 human secreted proteins was used for identification of potential modulators of the barrier function of human intestinal epithelial cells.

Molecule: N[C@@H](CCO)C(=O)O [L-homoserine]
- effect on tight junctions in metabolite screen ([1]; Caco2 cells): Stabilization
- tight junction distortion caused by LPS ([1]; Caco2 cells): abolish tight junction distortion caused by LPS treatment alone
- focal adhesions size vs control non treated cells [2]: reduction in focal adhesions size
- enlargement of focal adhesions caused by LPS [2]: prevent enlargement focal adhesions caused by LPS treatment

Molecule: CC(=O)N1CCC[C@H]1C(=O)O [N-acetylproline]
- effect on tight junctions in metabolite screen ([1]; Caco2 cells): Disruption
- tight junction morphology ([1]; Caco2 cells): distortion of tight junction morphology
- focal adhesions size [2]: increase of focal adhesions size

Molecule: Cc1ccc2c(c1)C(=O)C1(O)CCN(c3ccccc3)C1=N2 (stereo not shown) [blebbistatin, reference compound]
- disruptive effect of LPS and histamine on tight junctions ([1]; Caco2 cells, co-treatment with 20 μM blebbistatin): abolishes disruptive effect of LPS and histamine on tight junctions
- focal adhesions enlarged by LPS or histamine ([2]; co-treatment with 20 μM blebbistatin): reduction of focal adhesions
- forces applied to the substrate (cell contractility) [3]: cause cell relaxation

Molecule: NCCCNCCCCNCCCN [spermine]
- effect on tight junctions in metabolite screen ([1]; Caco2 cells): Disruption
- tight junction disruption phenotype (type 1 zipper-like, type 2 flower-like) ([1]; Caco2 cells): type 2
- tight junction morphology ([1]; Caco2 cells): distortion of tight junction morphology
- tight junction phenotype in combination with LPS ([1]; Caco2 cells, type 2 disruptor plus LPS): double effect
- focal adhesions size [2]: increase of focal adhesions size

Molecule: NCCc1c[nH]c2ccccc12 [tryptamine]
- recovery of TJ structure on replacement of disruptors with stabilizer ([1]; CaCo2 cells pretreated with LPS, histamine or putrescine, even in the presence of the disruptors): full recovery of TJ structure
- effect on tight junctions in metabolite screen ([1]; Caco2 cells): Stabilization
- tight junction distortion caused by LPS ([1]; Caco2 cells): abolish tight junction distortion caused by LPS treatment alone
- disrupting activity of dysbiotic fecal extract ([1]; Caco2 cells, extract combined with 1 mM tryptamine or fecal extract from healthy animals): neutralized
- focal adhesions size vs control non treated cells [2]: reduction in focal adhesions size
- enlargement of focal adhesions caused by LPS [2]: prevent enlargement focal adhesions caused by LPS treatment
- forces applied to the substrate (cell contractility) [3]: cause cell relaxation

Molecule: Chemokine ligand 20 [CCL-20]
- TJ morphology (cingulin) in secreted molecules screen [4]: changes in TJ morphology similar to previously observed upon treatment with known pro-inflammatory mediators

Molecule: Fibroblast growth factor 1 [FGF-1]
- TJ morphology (cingulin) in secreted molecules screen [4]: changes in TJ morphology similar to previously observed upon treatment with known pro-inflammatory mediators

Molecule: IL1-b: cytokine, known pro-inflammatory IBD mediator
- tight junctions morphology (cingulin) ([1]; Caco2 cells): significant alteration in tight junctions morphology

Molecule: Interleukin-15 [Il-15]
- TJ morphology (cingulin) in secreted molecules screen [4]: changes in TJ morphology similar to previously observed upon treatment with known pro-inflammatory mediators

Molecule: Interleukin-21 [IL-21]
- distortion of tight junctions on co-treatment of stabilizer with disruptor ([1]; Caco2 cells, cingulin): abolished distortion of tight junctions observed in the treatment with disruptors alone
- TJ tortuosity on co-treatment of disruptor with stabilizer ([1]; Caco2 cells, N≥200): reduces tortuosity to the level of untreated control
- enlargement of focal adhesions on co-treatment with disruptor ([2]; paxilin): prevents enlargement of focal adhesions caused by treatments with disruptors only
- TJ morphology (cingulin) in secreted molecules screen [4]: improvement of TJ morphology in comparison to non-treated control

Molecule: TNFa
- tight junction disruption phenotype (type 1 zipper-like, type 2 flower-like) ([1]; Caco2 cells): type 1
- tight junctions morphology (cingulin) ([1]; Caco2 cells): significant alteration in tight junctions morphology
- TJ morphology (cingulin) in secreted molecules screen [4]: changes in TJ morphology similar to previously observed upon treatment with known pro-inflammatory mediators

Molecule: Tissue metalloprotease inhibitor 2 [TIMP-2]
- TJ morphology (cingulin) in secreted molecules screen [4]: improvement of TJ morphology in comparison to non-treated control

Molecule: Urocortin 1 (DNPSLSIDLTFHLLRTLLELARTQSQRERAEQNRIIFDSV; ends and bridges not checked; UniProt P55089 83-122, looked up) [UCN-1]
- TJ morphology (cingulin) in secreted molecules screen [4]: changes in TJ morphology similar to previously observed upon treatment with known pro-inflammatory mediators

Molecule: Urocortin 3 (FTLSLDVPTNIMNLLFNIAKAKNLRAQAAANAHLMAQI; ends and bridges not checked; UniProt Q969E3 120-157, looked up) [UCN-3]
- TJ morphology (cingulin) in secreted molecules screen [4]: changes in TJ morphology similar to previously observed upon treatment with known pro-inflammatory mediators

Molecule: Urotensin 2 (ETPDCFWKYCV; ends and bridges not checked; cysteine pairing not given here; UniProt O95399 114-124, looked up) [UTS-2]
- TJ morphology (cingulin) in secreted molecules screen [4]: changes in TJ morphology similar to previously observed upon treatment with known pro-inflammatory mediators

B1: Chemokine ligand 3 (protein, UniProt P10147 24-92, looked up)
C-C motif chemokine 3: SLAADTPTACCFSYTSRQIPQNFIADYFETSSQCSKPGVIFLTKRSRQVCADPSEEWVQKYVSDLELSA
- TJ morphology (cingulin) in secreted molecules screen [4]: improvement of TJ morphology in comparison to non-treated control

B2: Fas ligand (protein, UniProt P48023 130-281, looked up)
Tumor necrosis factor ligand …: QIGHPSPPPEKKELRKVAHLTGKSNSRSMPLEWEDTYGIVLLSGVKYKKGGLVINETGLYFVYSKVYFRGQSCNNLPLSHKVYMRNSKYPQDLVMMEGKMMSYCTTGQMWARSSYLGAVFNLTSADHLYVNVSELSLVNFEESQTFFGLYKL
- TJ morphology (cingulin) in secreted molecules screen [4]: improvement of TJ morphology in comparison to non-treated control

B3: Chemokine ligand 23 (protein, UniProt P55773 22-120, looked up)
C-C motif chemokine 23: RVTKDAETEFMMSKLPLENPVLLDRFHATSADCCISYTPRSIPCSLLESYFETNSECSKPGVIFLTKKGRRFCANPSDKQVQVCMRMLKLDTRIKTRKN
- TJ morphology (cingulin) in secreted molecules screen [4]: changes in TJ morphology similar to previously observed upon treatment with known pro-inflammatory mediators

B4: Bone morphogenetic protein 10 (protein, UniProt O95393 317-424, looked up)
Bone morphogenetic protein 10: NAKGNYCKRTPLYIDFKEIGWDSWIIAPPGYEAYECRGVCNYPLAEHLTPTKHAIIQALVHLKNSQKASKACCVPTKLEPISILYLDKGVVTYKFKYEGMAVSECGCR
- TJ morphology (cingulin) in secreted molecules screen [4]: changes in TJ morphology similar to previously observed upon treatment with known pro-inflammatory mediators

B5: Fibroblast growth factor 10 (protein, UniProt O15520 38-208, looked up)
Fibroblast growth factor 10: QALGQDMVSPEATNSSSSSFSSPSSAGRHVRSYNHLQGDVRWRKLFSFTKYFLKIEKNGKVSGTKKENCPYSILEITSVEIGVVAVKAINSNYYLAMNKKGKLYGSKEFNNDCKLKERIEENGYNTYASFNWQHNGRQMYVALNGKGAPRRGQKTRRKNTSAHFLPMVVHS
- TJ morphology (cingulin) in secreted molecules screen [4]: changes in TJ morphology similar to previously observed upon treatment with known pro-inflammatory mediators

B6: IL-22: human non-inflammatory cytokine (protein, UniProt Q9GZX6 34-179, looked up)
Interleukin-22: APISSHCRLDKSNFQQPYITNRTFMLAKEASLADNNTDVRLIGEKLFHGVSMSERCYLMKQVLNFTLEEVLFPQSDRFQPYMQEVVPFLARLSNRLSTCHIEGDDLHIQRNVQKLKDTVKKLGESGEIKAIGELDLLFMSLRNACI
- tight junction morphology on co-treatment with pro-inflammatory agents ([1]; Caco2 cells, 100 ng/ml IL-22 plus TNFa, IL1-b or LPS): blocked; also recorded: completely restored normal tight junction morphology
